From US20210269434A1, “TRICYCLIC COMPOUNDS AS INHIBITORS OF KRAS” (Incyte Corporation, priority 2020, published 2021)

How the values were obtained:
[1] = tested on: MIA PaCa-2 (KRAS G12C) cells; assay: Cellular pERK HTRF assay (KRAS_G12C pERK); assay type: cell-based, human; conditions: Homo sapiens, MIA PaCa-2, 4 hours incubation, read-out: G12C_pERK
Procedure, shortened: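 Phospho-ERK1/2 HTRF readout (665 and 620 nm) in lysed MIA PaCa-2 cells, antibodies incubated overnight at room temperature. Cells seeded the day before and treated with G12C compounds for 4 h at 37 °C; IC50 fitted to percent inhibition against log inhibitor concentration.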

KRAS G12C = KRAS G12C (Homo sapiens, UniProt P01116, G12C); assay: GDP-GTP exchange assay (KRAS_G12C exchange); assay type: biochemical; conditions: bodipy-GDP loaded KRAS G12C 2.5 nM, SOS1 150 nM, GppNHp; 2 hours pre-incubation, 2 hours reaction; read-out: G12C_exchange
Chain of KRAS G12C (P01116 1-188 isoform P01116-2 G12C): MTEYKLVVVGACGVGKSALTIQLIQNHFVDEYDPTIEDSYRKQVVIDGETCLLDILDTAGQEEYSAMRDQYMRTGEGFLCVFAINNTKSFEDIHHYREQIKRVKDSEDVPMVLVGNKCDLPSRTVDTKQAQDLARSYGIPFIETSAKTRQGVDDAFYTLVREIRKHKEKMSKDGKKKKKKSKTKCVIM
Procedure, shortened: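 Fluorescence exchange of bodipy-GDP for GppNHp, SOS1-driven, read at 485/520 nm; IC50 from four-parameter variable-slope fit. Both mutants used 2.5 nM final labelled protein and a 2 h compound pre-incubation. G12C reaction had 500 uM GppNHp and 150 nM SOS1 for 2 h; G12D ran 4 h.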

## CC#CC(=O)N1CC[C@H](n2nnc3c(N4CCCCC4=O)nc4c(F)c(-c5cccc(Cl)c5C)c(Cl)cc4c32)C[C@H]1CC#N [Example 93, 2-((2S,4S)-1-(but-2-ynoyl)-4-(8-chloro-7-(3-chloro-2-methylphenyl)-6-fluoro-4-(2-oxopiperidin-1-yl)-1H-[1,2,3]triazolo[4,5-c]quinolin-1-yl)piperidin-2-yl)acetonitrile]
[1]
  IC50: ≤ 100 nM
KRAS G12C
  IC50: ≤ 100 nM

## CC#CC(=O)N1CC[C@H](n2nnc3c(O[C@@H](C)CN(C)C)nc4c(F)c(-c5cccc(Cl)c5C)c(Cl)cc4c32)C[C@H]1CC#N [Example 94, 2-((2S,4S)-1-(but-2-ynoyl)-4-(8-chloro-7-(3-chloro-2-methylphenyl)-4-(((S)-1-(dimethylamino)propan-2-yl)oxy)-6-fluoro-1H-[1,2,3]triazolo[4,5-c]quinolin-1-yl)piperidin-2-yl)acetonitrile]
[1]
  IC50: ≤ 100 nM
KRAS G12C
  IC50: ≤ 100 nM

## C=CC(=O)N1CC[C@H](n2nnc3c(OC[C@@H]4CCCN4C)nc4c(F)c(-c5cccc(C#N)c5C)c(Cl)cc4c32)C[C@H]1CC#N [Example 95, 3-(1-((2S,4S)-1-acryloyl-2-(cyanomethyl)piperidin-4-yl)-8-chloro-6-fluoro-4-(((S)-1-methylpyrrolidin-2-yl)methoxy)-1H-[1,2,3]triazolo[4,5-c]quinolin-7-yl)-2-methylbenzonitrile]
[1]
  IC50: ≤ 100 nM
KRAS G12C
  IC50: ≤ 100 nM

## CC#CC(=O)N1CC[C@H](n2nnc3c(OC[C@@H]4CCCN4C)nc4c(F)c(-c5cccc(C#N)c5C)c(Cl)cc4c32)C[C@H]1CC#N [Example 96, 3-(1-((2S,4S)-1-(but-2-ynoyl)-2-(cyanomethyl)piperidin-4-yl)-8-chloro-6-fluoro-4-(((S)-1-methylpyrrolidin-2-yl)methoxy)-1H-[1,2,3]triazolo[4,5-c]quinolin-7-yl)-2-methylbenzonitrile]
[1]
  IC50: ≤ 100 nM
KRAS G12C
  IC50: ≤ 100 nM

## Cc1c(C#N)cccc1-c1c(Cl)cc2c(nc(OC[C@@H]3CCCN3C)c3nnn([C@H]4CCN(C(=O)/C=C/CN(C)C)[C@H](CC#N)C4)c32)c1F [Example 97, 3-(8-chloro-1-((2S,4S)-2-(cyanomethyl)-1-((E)-4-(dimethylamino)but-2-enoyl)piperidin-4-yl)-6-fluoro-4-(((S)-1-methylpyrrolidin-2-yl)methoxy)-1H-[1,2,3]triazolo[4,5-c]quinolin-7-yl)-2-methylbenzonitrile]
[1]
  IC50: ≤ 100 nM
KRAS G12C
  IC50: ≤ 100 nM

## C=CC(=O)N1CC[C@H](n2nnc3c(OC[C@@H]4CCCN4C)nc4c(F)c(-c5cccc(Cl)c5C)c(C)cc4c32)C[C@H]1CC#N [Example 98, 2-((2S,4S)-1-acryloyl-4-(7-(3-chloro-2-methylphenyl)-6-fluoro-8-methyl-4-(((S)-1-methylpyrrolidin-2-yl)methoxy)-1H-[1,2,3]triazolo[4,5-c]quinolin-1-yl)piperidin-2-yl)acetonitrile]
[1]
  IC50: ≤ 100 nM
KRAS G12C
  IC50: ≤ 100 nM

## CC#CC(=O)N1CC[C@H](n2nnc3c(OC[C@@H]4CCCN4C)nc4c(F)c(-c5cccc(Cl)c5C)c(C)cc4c32)C[C@H]1CC#N [Example 99, 2-((2S,4S)-1-(but-2-ynoyl)-4-(7-(3-chloro-2-methylphenyl)-6-fluoro-8-methyl-4-(((S)-1-methylpyrrolidin-2-yl)methoxy)-1H-[1,2,3]triazolo[4,5-c]quinolin-1-yl)piperidin-2-yl)acetonitrile]
[1]
  IC50: ≤ 100 nM
KRAS G12C
  IC50: ≤ 100 nM

## COC/C=C/C(=O)N1CC[C@H](n2nnc3c(OC[C@@H]4CCCN4C)nc4c(F)c(-c5cccc(Cl)c5C)c(C)cc4c32)C[C@H]1CC#N [Example 100, 2-((2S,4S)-4-(7-(3-chloro-2-methylphenyl)-6-fluoro-8-methyl-4-(((S)-1-methyl-pyrrolidin-2-yl)methoxy)-1H-[1,2,3]triazolo[4,5-c]quinolin-1-yl)-1-((E)-4-methoxybut-2-enoyl)piperidin-2-yl)acetonitrile]
[1]
  IC50: ≤ 100 nM
KRAS G12C
  IC50: ≤ 100 nM

## C=CC(=O)N1CC[C@H](n2nnc3c(N4CC(C)(N(C)C)C4)nc4c(F)c(-c5cccc(Cl)c5C)c(C)cc4c32)C[C@H]1CC#N [Example 101, 2-((2S,4S)-1-acryloyl-4-(7-(3-chloro-2-methylphenyl)-4-(3-(dimethylamino)-3-methylazetidin-1-yl)-6-fluoro-8-methyl-1H-[1,2,3]triazolo[4,5-c]quinolin-1-yl)piperidin-2-yl)acetonitrile]
[1]
  IC50: ≤ 100 nM
KRAS G12C
  IC50: ≤ 100 nM

## Cc1cc2c(nc(N3CC(C)(N(C)C)C3)c3nnn([C@H]4CCN(C(=O)/C=C/C(F)F)[C@H](CC#N)C4)c32)c(F)c1-c1cccc(Cl)c1C [Example 102, 2-((2S,4S)-4-(7-(3-chloro-2-methylphenyl)-4-(3-(dimethylamino)-3-methylazetidin-1-yl)-6-fluoro-8-methyl-1H-[1,2,3]triazolo-[4,5-c]quinolin-1-yl)-1-((E)-4,4-difluorobut-2-enoyl)-piperidin-2-yl)acetonitrile]
[1]
  IC50: ≤ 100 nM
KRAS G12C
  IC50: ≤ 100 nM

## CC#CC(=O)N1CC[C@H](n2nnc3c(N4CC(C)(N(C)C)C4)nc4c(F)c(-c5cccc(Cl)c5C)c(C)cc4c32)C[C@H]1CC#N [Example 103, 2-((2S,4S)-1-(but-2-ynoyl)-4-(7-(3-chloro-2-methyl-phenyl)-4-(3-(dimethyl-amino)-3-methylazetidin-1-yl)-6-fluoro-8-methyl-1H-[1,2,3]triazolo[4,5-c]quinolin-1-yl)piperidin-2-yl)acetonitrile]
[1]
  IC50: ≤ 100 nM
KRAS G12C
  IC50: ≤ 100 nM

## Cc1cc2c(nc(N3CC(C)(N(C)C)C3)c3nnn([C@H]4CCN(C(=O)/C=C/CF)[C@H](CC#N)C4)c32)c(F)c1-c1cccc(Cl)c1C [Example 104, 2-((2S,4S)-4-(7-(3-chloro-2-methylphenyl)-4-(3-(dimethylamino)-3-methyl-azetidin-1-yl)-6-fluoro-8-methyl-1H-[1,2,3]triazolo[4,5-c]quinolin-1-yl)-1-((E)-4-fluorobut-2-enoyl)piperidin-2-yl)acetonitrile]
[1]
  IC50: ≤ 100 nM
KRAS G12C
  IC50: ≤ 100 nM

## Cc1cc2c(nc(N3CC(C)(N(C)C)C3)c3nnn([C@H]4CCN(C(=O)/C=C/CN(C)C)[C@H](CC#N)C4)c32)c(F)c1-c1cccc(Cl)c1C [Example 105, 2-((2S,4S)-4-(7-(3-chloro-2-methylphenyl)-4-(3-(dimethylamino)-3-methylazetidin-1-yl)-6-fluoro-8-methyl-1H-[1,2,3]triazolo[4,5-c]quinolin-1-yl)-1-((E)-4-(dimethylamino)but-2-enoyl)piperidin-2-yl)acetonitrile]
[1]
  IC50: ≤ 100 nM
KRAS G12C
  IC50: ≤ 100 nM

## C=CC(=O)N1CC[C@H](n2cnc3c(N4CC(N(C)C)C4)nc4c(F)c(-c5ccccc5C(F)(F)F)c(Cl)cc4c32)C[C@H]1CC#N [Example 106, 2-((2S,4S)-1-acryloyl-4-(8-chloro-4-(3-(dimethylamino)azetidin-1-yl)-6-fluoro-7-(2-(trifluoromethyl)phenyl)-1H-imidazo[4,5-c]quinolin-1-yl)piperidin-2-yl)acetonitrile]
[1]
  IC50: ≤ 100 nM
KRAS G12C
  IC50: ≤ 100 nM

## C=CC(=O)N1CC[C@H](n2cnc3c(N4CC(N(C)C)C4)nc4c(F)c(-c5cccc(Cl)c5Cl)c(Cl)cc4c32)C[C@H]1CC#N [Example 107, 2-((2S,4S)-1-acryloyl-4-(8-chloro-7-(2,3-dichlorophenyl)-4-(3-(dimethylamino)azetidin-1-yl)-6-fluoro-1H-imidazo[4,5-c]quinolin-1-yl)piperidin-2-yl)acetonitrile]
[1]
  IC50: ≤ 100 nM
KRAS G12C
  IC50: ≤ 100 nM

## C=CC(=O)N1CC[C@H](n2cnc3c(N4CC(N(C)C)C4)nc4c(F)c(-c5cnccc5C)c(Cl)cc4c32)C[C@H]1CC#N [Example 108, 2-((2S,4S)-1-acryloyl-4-(8-chloro-4-(3-(dimethylamino)azetidin-1-yl)-6-fluoro-7-(4-methylpyridin-3-yl)-1H-imidazo[4,5-c]quinolin-1-yl)piperidin-2-yl)acetonitrile]
[1]
  IC50: ≤ 100 nM
KRAS G12C
  IC50: ≤ 100 nM

## C=CC(=O)N1CC[C@H](n2cnc3c(N4CC(N(C)C)C4)nc4c(F)c(-c5cccc(C)c5)c(Cl)cc4c32)C[C@H]1CC#N [Example 109, 2-((2S,4S)-1-acryloyl-4-(8-chloro-4-(3-(dimethylamino)-azetidin-1-yl)-6-fluoro-7-(m-tolyl)-1H-imidazo[4,5-c]quinolin-1-yl)piperidin-2-yl)acetonitrile]
[1]
  IC50: ≤ 100 nM
KRAS G12C
  IC50: ≤ 100 nM

## C=CC(=O)N1CC[C@H](n2cnc3c(N4CC(N(C)C)C4)nc4c(F)c(-c5cncc(C)c5C)c(Cl)cc4c32)C[C@H]1CC#N [Example 110a, 2-((2S,4S)-1-acryloyl-4-(8-chloro-4-(3-(dimethylamino)-azetidin-1-yl)-7-(4,5-dimethylpyridin-3-yl)-6-fluoro-1H-imidazo[4,5-c]quinolin-1-yl)piperidin-2-yl)acetonitrile]
[1]
  IC50: ≤ 100 nM
KRAS G12C
  IC50: ≤ 100 nM

## C=CC(=O)N1CC[C@H](n2nnc3c(N4CC(N(C)C)C4)nc4c(F)c(-c5cccc(C)c5C)c(Cl)cc4c32)C[C@H]1CC#N [Example 111, 2-((2S,4S)-1-acryloyl-4-(8-chloro-4-(3-(dimethylamino)azetidin-1-yl)-7-(2,3-dimethylphenyl)-6-fluoro-1H-[1,2,3]triazolo[4,5-c]quinolin-1-yl)piperidin-2-yl)acetonitrile]
[1]
  IC50: ≤ 100 nM
KRAS G12C
  IC50: ≤ 100 nM

## C=CC(=O)N1CC[C@H](n2nnc3c(N4CC(N(C)C)C4)nc4c(F)c(-c5cccc(Cl)c5C)c(Cl)cc4c32)C[C@H]1CC#N [Example 112, 2-((2S,4S)-1-acryloyl-4-(8-chloro-7-(3-chloro-2-methylphenyl)-4-(3-(dimethylamino)azetidin-1-yl)-6-fluoro-1H-[1,2,3]triazolo[4,5-c]quinolin-1-yl)piperidin-2-yl)acetonitrile]
[1]
  IC50: ≤ 100 nM
KRAS G12C
  IC50: ≤ 100 nM
